Data on one compound can be found in paper PMC10017709, “Structural basis of selective cannabinoid CB2 receptor activation” (Nature Communications, 2023).

Molecules are shown by their SMILES.

The test system of one series is CB1R activity. The experiment in a line: Mouse tetrad assay for CB1R activity. The note with it: in vivo, po, 25 mg/kg. Here is the method:
To determine whether LEI-102 maintained its selectivity for CB2R over CB1R in vivo, LEI-102 was tested in the mouse tetrad assay for CB1R activity. In this assay, four consecutive behavioral tests, related to anti-nociception, hypothermia, catalepsy, and spontaneous activity, were performed 120 min after administration of the agonist. […] There were no effects on nociceptive behavior assessed in tail withdrawal test nor on body temperature (Fig. 6 upper row). No effect was found on locomotor behavior (Fig. 6 lower row) in case of distance traveled, time spent mobile, or running speed of mice.
(§1) The well-established model of cisplatin-induced nephropathy was used[63]. Mice (CB2R^−/− and CB2R^+/+) were sacrificed 72 h after a single injection of cisplatin (cis-diamine platinum (II) dichloride (Sigma#P4394) 25 mg/kg i.p.; freshly dissolved in physiological saline) by cervical dislocation under deep anesthesia with 5% isoflurane, for collection of blood and tissue samples. LEI-102 was given i.p. or by oral gavage (p.o.) at 0.3, 3.0, and 10 mg/kg every day, starting 1.5 h before the cisplatin exposure. The drug was dissolved in a vehicle of DMSO:Tween 80:saline, 1:1:18. After administration of LEI‐102, mice were killed by cervical dislocation under deep anesthesia with 5% isoflurane, for collection of blood and tissue samples at the time described in the figure. The tetrad assay in mice has previously been described in detail.

The subject of series [1] is cisplatin-induced nephropathy, CB2R knockout mice (CB2R−/−). The experiment in a line: Cisplatin-induced nephropathy in CB2R knockout mice. The format is in vivo. Here is the method: Ten to twelve-week-old male/female C57BL/6J mice were obtained from The Jackson Laboratory (Bar Harbor, ME, USA). CB2R knockout mice (CB2R^−/−) and their wild-type littermates (CB2R^+/+) were developed as described previously and had been backcrossed to a C57BL/6J background. All animals were kept in a temperature-controlled environment (20–22 °C) with a 12 h light–dark cycle and were always allowed free access to food and water. All animal experiments reported in this manuscript complied with the National Institutes of Health “Guide for the Care and Use of Laboratory Animals” (NIH publication 86–23 revised 1985) and were approved by the Institutional Animal Care and Use Committee of the National Institute on Alcohol Abuse and Alcoholism (Bethesda, MD).
as §1
Markers of kidney dysfunction (BUN and CREA), histopathology (PAS staining), immunostaining or ELISA for 3-nitrotyrosine (3-NT; Cell Biolabs #STA-305) and 4-hydroxynonenal (4-HNE; Cell Biolabs#STA-838), and real-time PCR (Primers from Qiagen, SYBER Green Vita Scientific#MEIF01301, High-Capacity cDNA Reverse Transcription Kit, Thermo Fisher Scientific#4368813) for inflammatory cytokines were performed as previously described. Tubular damage scores were determined based on the percentage of tubules showing epithelial necrosis where 0= normal; 1, <10%; 2, 10–25%; 3, 26–75%; 4, >75%. Tubular necrosis was defined as the loss of the proximal tubular brush border, blebbing of apical membranes, tubular epithelial cell detachment from the basement membrane, or intraluminal aggregation of cells and proteins. The morphometric examination was performed in a blinded manner. Ten fields were scored from each mouse kidneys at 200× magnification, and average scores were determined for each mouse. For final quantification graph, average tubular damage scores of six mice/group were plotted.

Another series addresses CB2R-L185^ECL2H (Homo sapiens, UniProt P34972, L185H). In words: [3H]CP55,940 displacement assay, CB2R L185H mutant. The format is binding. The note with it: read-out: pKi (converted).
Where [2] appears, read: Cisplatin + LEI-102 10 mg/kg, KO, mean, n = 6.

Chain of CB2R-L185^ECL2H (P34972 whole entry L185H): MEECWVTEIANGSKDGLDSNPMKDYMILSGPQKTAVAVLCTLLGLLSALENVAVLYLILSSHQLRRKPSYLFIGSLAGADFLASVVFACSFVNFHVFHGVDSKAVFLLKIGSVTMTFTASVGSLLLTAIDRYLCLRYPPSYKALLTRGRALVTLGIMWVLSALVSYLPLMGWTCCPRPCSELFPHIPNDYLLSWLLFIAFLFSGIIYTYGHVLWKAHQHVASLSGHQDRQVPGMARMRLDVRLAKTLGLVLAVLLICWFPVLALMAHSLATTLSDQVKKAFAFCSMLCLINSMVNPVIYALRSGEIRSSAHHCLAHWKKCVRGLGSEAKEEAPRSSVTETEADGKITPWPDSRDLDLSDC

On to `CC(C)CN1C(=O)CN(Cc2ccc(-c3ccc(F)c(CNC4CCOCC4)n3)cc2)C1=O` [LEI-102, 1-(4-(5-fluoro-6-(((tetrahydro-2H-pyran-4-yl)amino)methyl)pyridin-2-yl)benzyl)-3-isobutylimidazolidine-2,4-dione], for which, in the series with CB1R activity, the catalepsy entry was “Nor was catalepsy observed” and the “effects in the tetrad assay as compared with vehicle” value is “did not produce any effects”. In addition, in the series with CB1R activity (120 min), the “Tail withdrawal (%MPE)” value was determined as 30.0 %MPE. Further, in series [1] (CB2R knockout mice), the “protective effects against cisplatin-induced renal dysfunction, tubular damage, histopathological injury and oxidative-nitrative stress” value is recorded as “abolished”. In series [1] (setting [2]), the BUN came out at 312, the CREA was found to be 3.9 and the Tubular damage score amounted to 2.88. For the same compound, on CB2R-L185^ECL2H, the Ki was 50.1 nM.
